Assay results published in US9932309B2, “2-oxo-3,4-dihydropyridine-5-carboxylates and their use” (UNIVERSITE DE LILLE 2 DROIT ET SANTE, priority 2014, dated 2018).

Tests used:
mTGR5 = molecular target: T1, mTGR5 (Mus musculus, UniProt Q80SS6); experiment: TGR5/CRE Luciferase Assay (mTGR5); type: cell-based; conditions: for EC50: HEK 293 cells co-transfected with pCMV AC6-TGR5m and pCRE TA-Luciferase, overnight incubation; for mTGR5 % trans: percentage of the 10 μM LCA value, HEK 293 cells transfected with mTGR5
T1 construct: expressed in transfected cells; host or cells: HEK293 cells, transiently co-transfected with the pCRE TA-Luciferase reporter
T1 sequence (Q80SS6 1-329): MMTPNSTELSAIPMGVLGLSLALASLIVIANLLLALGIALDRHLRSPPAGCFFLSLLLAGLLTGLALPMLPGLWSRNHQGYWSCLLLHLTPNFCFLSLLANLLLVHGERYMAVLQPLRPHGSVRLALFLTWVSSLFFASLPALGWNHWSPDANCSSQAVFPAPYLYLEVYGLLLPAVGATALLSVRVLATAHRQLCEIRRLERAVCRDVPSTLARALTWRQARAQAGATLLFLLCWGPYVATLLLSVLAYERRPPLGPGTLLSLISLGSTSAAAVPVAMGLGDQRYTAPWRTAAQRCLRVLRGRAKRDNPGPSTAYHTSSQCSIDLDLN
Experimental: (§1) TGR5/CRE Luciferase Assay
(§2) In the following Tables TGR5 activation by compounds of the invention and subsequent increase in intracellular cAMP were evaluated using a luciferase reporter gene assay. Human embryonic kidney (HEK) 293 cells were transiently co-transfected with pCMV tag4b-TGR5 h (to follow hTGR5 activation) or pCMV AC6-TGR5m (to follow mTGR5 activation) expression plasmids and the pCRE TA-Luciferase reporter plasmid using the JET PEI reagent (Polyplus transfection). Transfected cells were seeded in 96-well plates and incubated overnight with the test compounds at increasing concentrations tested in duplicate. Lithocolic acid (LCA) at 10 μM was used as a positive reference compound. The cAMP-dependent luciferase expression was followed using the BrightGlo reagent according to the manufacturer (Promega) instructions. Luminescence was read with a Mithras plate reader (Berthold) or a Victor3™ V1420 (Perkin Elmer). […] Concentration-response curves were fitted by a nonlinear regression analysis to a 4 parameter logistic equation

hTGR5 = molecular target: T2, hTGR5 (Homo sapiens, UniProt Q8TDU6); experiment: TGR5/CRE Luciferase Assay (hTGR5); type: cell-based; conditions: for EC50: HEK 293 cells co-transfected with pCMV tag4b-TGR5h and pCRE TA-Luciferase, overnight incubation; for hTGR5 % trans: percentage of the 10 μM LCA value, HEK 293 cells transfected with hTGR5
T2 construct: expressed in transfected cells; host or cells: HEK293 cells, transiently co-transfected with the pCRE TA-Luciferase reporter
T2 sequence (Q8TDU6 1-330): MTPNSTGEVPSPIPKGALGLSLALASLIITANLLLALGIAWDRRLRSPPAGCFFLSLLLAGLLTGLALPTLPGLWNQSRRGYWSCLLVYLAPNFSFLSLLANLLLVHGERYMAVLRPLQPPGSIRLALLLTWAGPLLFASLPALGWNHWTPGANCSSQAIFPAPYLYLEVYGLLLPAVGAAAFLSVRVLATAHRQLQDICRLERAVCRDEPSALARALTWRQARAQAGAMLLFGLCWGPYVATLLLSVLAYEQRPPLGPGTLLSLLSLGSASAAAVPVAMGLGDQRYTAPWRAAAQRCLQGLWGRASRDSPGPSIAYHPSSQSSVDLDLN
Experimental: as §1, §2

## CCOC(=O)C1=C(c2ccccc2)N(C)C(=O)CC1c1ccc(Cl)cc1 (stereo not shown) [Example 20, Ethyl 4-(4-chlorophenyl)-1-methyl-2-oxo-6-phenyl-3,4-dihydropyridine-5-carboxylate]
mTGR5
  EC50: 2500 nM
  mTGR5 % trans: 53%
hTGR5
  EC50: 3000 nM
  hTGR5 % trans: 42%

## CC1=C(C(=O)OCc2ccccc2)C(c2ccc(Cl)cc2)CC(=O)N1C (stereo not shown) [Compound 17, 4-(4-Chloro-phenyl)-1,2-dimethyl-6-oxo-1,4,5,6-tetrahydro-pyridine-3-carboxylic acid benzyl ester]
mTGR5
  EC50: 1400 nM
hTGR5
  EC50: 600 nM

## COCCN1C(=O)CC(c2ccc(Cl)cc2)C(C(=O)OCc2ccc(OC)cc2)=C1C (stereo not shown) [Example 104, (4-methoxyphenyl)methyl 4-(4-chlorophenyl)-1-(2-methoxyethyl)-6-methyl-2-oxo-3,4-dihydropyridine-5-carboxylate]
mTGR5
  EC50: 200 nM
  mTGR5 % trans: 85%
hTGR5
  EC50: 200 nM
  hTGR5 % trans: 71%

## COCCN1C(=O)CC(c2ccc(Cl)c(Cl)c2)C(C(=O)OCc2ccccc2OC)=C1C (stereo not shown) [Example 127, (2-methoxyphenyl)methyl 4-(3,4-dichlorophenyl)-1-(2-methoxyethyl)-6-methyl-2-oxo-3,4-dihydropyridine-5-carboxylate]
mTGR5
  EC50: 100 nM
  mTGR5 % trans: 109%
hTGR5
  EC50: 100 nM
  hTGR5 % trans: 89%

## COCCN1C(=O)CC(c2ccc(Cl)cc2)C(C(=O)OCc2ccccc2)=C1C (stereo not shown) [Compound 37, Benzyl 4-(4-chlorophenyl)-1-(2-methoxyethyl)-6-methyl-2-oxo-3,4-dihydropyridine-5-carboxylate]
mTGR5
  EC50: 600 nM
hTGR5
  EC50: 300 nM

## COCCN1C(=O)CC(c2ccc(Cl)cc2)C(C(=O)OCc2ccc(Cl)cc2)=C1C (stereo not shown) [Example 89, (4-chlorophenyl)methyl 4-(4-chlorophenyl)-1-(2-methoxyethyl)-6-methyl-2-oxo-3,4-dihydropyridine-5-carboxylate]
mTGR5
  EC50: 300 nM
  mTGR5 % trans: 84%
hTGR5
  EC50: 400 nM
  hTGR5 % trans: 65%

## CC1=C(C(=O)OCc2ccc(C(F)(F)F)cc2)C(c2ccc(Cl)cc2)CC(=O)N1C (stereo not shown) [Example 80, [4-(trifluoromethyl)phenyl]methyl 4-(4-chlorophenyl)-1,6-dimethyl-2-oxo-3,4-dihydropyridine-5-carboxylate]
mTGR5
  EC50: 1400 nM
  mTGR5 % trans: 67%
hTGR5
  EC50: 1500 nM
  hTGR5 % trans: 60%

## CCCC1CC(=O)N(CCOC)C(C)=C1C(=O)OCc1ccccc1OC (stereo not shown) [Example 121, (2-methoxyphenyl)methyl 1-(2-methoxyethyl)-6-methyl-2-oxo-4-propyl-3,4-dihydropyridine-5-carboxylate]
mTGR5
  EC50: 1200 nM
  mTGR5 % trans: 49%
hTGR5
  EC50: 1100 nM
  hTGR5 % trans: 51%

## COc1ccccc1COC(=O)C1=C(C)N(C[C@@H]2CCCO2)C(=O)C[C@H]1c1ccc(Cl)nc1 [Example 163, (2-Methoxyphenyl)methyl-(4S)-4-(6-chloro-3-pyridyl)-6-methyl-2-oxo-1-[[(2S)-tetra hydrofuran-2-yl]methyl]-3,4-dihydropyridine-5-carboxylate]
mTGR5
  mTGR5 % trans: 102%
hTGR5
  EC50: 17 nM
  hTGR5 % trans: 105%

## COCCCN1C(=O)CC(c2ccc(Cl)cc2)C(C(=O)OCc2ccccc2OC)=C1C (stereo not shown) [Compound 71, (2-methoxyphenyl)methyl 4-(4-chlorophenyl)-1-(3-methoxypropyl)-6-methyl-2-oxo-3,4-dihydropyridine-5-carboxylate]
mTGR5
  EC50: 800 nM
  mTGR5 % trans: 85%
hTGR5
  EC50: 200 nM
  hTGR5 % trans: 94%

## COCCN1C(=O)CC(c2ccc(Cl)cc2)C(C(=O)OCC(=O)c2ccccc2)=C1C (stereo not shown) [Example 112, Phenacyl 4-(4-chlorophenyl)-1-(2-methoxyethyl)-6-methyl-2-oxo-3,4-dihydropyridine-5-carboxylate]
mTGR5
  EC50: 3200 nM
  mTGR5 % trans: 46%
hTGR5
  EC50: 5200 nM
  hTGR5 % trans: 20%

## CC1=C(C(=O)OCc2ccccc2)C(c2ccc(Cl)cc2)CC(=O)N1CC1CN(C)C1 (stereo not shown) [Compound 47, Benzyl 4-(4-chlorophenyl)-6-methyl-1-[(1-methylazetidin-3-yl)methyl]-2-oxo-3,4-dihydropyridine-5-carboxylate]
mTGR5
  mTGR5 % trans: 0%
hTGR5
  EC50: 6600 nM
  hTGR5 % trans: 22%

## COCCN1C(=O)CC(c2ccc(Cl)cc2)C(C(=O)OCc2ccc3ccccc3c2)=C1C (stereo not shown) [Example 106, 2-naphthylmethyl 4-(4-chlorophenyl)-1-(2-methoxyethyl)-6-methyl-2-oxo-3,4-dihydropyridine-5-carboxylate]
mTGR5
  EC50: 200 nM
hTGR5
  EC50: 400 nM

## CC1=C(C(=O)OCc2cccnc2)[C@H](c2ccc(Cl)cc2)CC(=O)N1C[C@H]1CCCO1 (racemic) [Example 146, 3-pyridylmethyl (4S)-4-(4-chlorophenyl)-6-methyl-2-oxo-1-[[(2R)-tetrahydrofuran-2-yl]methyl]-3,4-dihydropyridine-5-carboxylate and 3-pyridylmethyl (4R)-4-(4-chlorophenyl)-6-methyl-2-oxo-1-[[(2S)-tetrahydrofuran-2-yl]methyl]-3,4-dihydropyridine-5-carboxy late]
mTGR5
  EC50: 450 nM
  mTGR5 % trans: 77%
hTGR5
  EC50: 350 nM
  hTGR5 % trans: 78%

## CC1=C(C(=O)OCc2ccccc2OCCS(=O)(=O)O)[C@@H](c2ccc(Cl)nc2)CC(=O)N1C[C@@H]1CCCO1.N (racemic) [Example 158, Ammonium, 2-[2-[[(4S)-4-(6-chloro-3-pyridyl)-6-methyl-2-oxo-1-[[(2R)-tetrahydrofuran-2-yl]methyl]-3,4-dihydropyridine-5-carbonyl]oxymethyl]phenoxy]ethanesulfonate and ammonium,2-[2-[[(4R)-4-(6-chloro-3-pyridyl)-6-methyl-2-oxo-1-[[(2S)-tetrahydrofuran-2-yl]methyl]-3,4-dihydropyridine-5-carbonyl]oxymethyl]phenoxy]ethanesulfonate]
mTGR5
  EC50: 1300 nM
  mTGR5 % trans: 97%
hTGR5
  EC50: 3600 nM
  hTGR5 % trans: 74%

## COCCN1C(=O)CC(c2ccc(-c3ccccc3)cc2)C(C(=O)OCc2ccccc2)=C1C (stereo not shown) [Example 123, Benzyl 1-(2-methoxyethyl)-6-methyl-2-oxo-4-(4-phenylphenyl)-3,4-dihydropyridine-5-carboxylate]
mTGR5
  EC50: 2800 nM
  mTGR5 % trans: 10%
hTGR5
  EC50: 1400 nM
  hTGR5 % trans: 17%

## COCCN1C(=O)CC(c2ccc(Cl)cc2)C(C(=O)OCc2ccc(OCCCN(C)C)cc2)=C1C (stereo not shown) [Example 116, [4-[3-(dimethylamino)propoxy]phenyl]methyl 4-(4-chlorophenyl)-1-(2-methoxyethyl)-6-methyl-2-oxo-3,4-dihydropyridine-5-carboxylate]
mTGR5
  EC50: 1600 nM
  mTGR5 % trans: 82%
hTGR5
  EC50: 1400 nM
  hTGR5 % trans: 76%

## O=C(OCc1ccccc1)C1=CN(CC2CC2)C(=O)CC1c1ccc(Cl)cc1 (stereo not shown) [Compound 29, Benzyl 4-(4-chlorophenyl)-1-(cyclopropylmethyl)-2-oxo-3,4-dihydropyridine-5-carboxylate]
mTGR5
  EC50: 1500 nM
  mTGR5 % trans: 37%
hTGR5
  EC50: 1260 nM
  hTGR5 % trans: 59%

## COCCN1C(=O)CC(c2ccc(Cl)cc2)C(C(=O)OCc2ccccc2F)=C1C (stereo not shown) [Example 84, (2-fluorophenyl)methyl 4-(4-chlorophenyl)-1-(2-methoxyethyl)-6-methyl-2-oxo-3,4-dihydropyridine-5-carboxylate]
mTGR5
  EC50: 500 nM
  mTGR5 % trans: 71%
hTGR5
  EC50: 400 nM
  hTGR5 % trans: 71%

## O=C(NCc1ccccc1)C1=CN(CC2CC2)C(=O)CC1c1ccc(Cl)cc1 (stereo not shown) [Compound 30, N-benzyl-4-(4-chlorophenyl)-1-(cyclopropylmethyl)-2-oxo-3,4-dihydropyridine-5-carboxamide]
mTGR5
  EC50: 3900 nM
  mTGR5 % trans: 12%
hTGR5
  EC50: 1500 nM
  hTGR5 % trans: 16%

## COC(=O)CN1C(=O)CC(c2ccc(Cl)cc2)C(C(=O)OCc2ccccc2)=C1C (stereo not shown) [Compound 57, Benzyl 4-(4-chlorophenyl)-1-(2-methoxy-2-oxo-ethyl)-6-methyl-2-oxo-3,4-dihydropyridine-5-carboxylate]
mTGR5
  EC50: 200 nM
